These results are taken from ChEMBL document CHEMBL1154241, “A QSAR study on relationship between structure of sulfonamides and their carbonic anhydrase inhibitory activity using the eigenvalue (EVA) method” (Eur J Med Chem, 2009).

The experiment deals with Carbonic anhydrase 2 (Homo sapiens) (UniProt P00918).

Description: Inhibition of carbonic anhydrase 2 assessed as inhibition of carbon dioxide hydration

`NS(=O)(=O)c1ccc(C/N=C/c2ccccc2O)cc1` returned a logKi of 2.11.

`CC(=O)Nc1ccc(/C=N/c2ccc(S(N)(=O)=O)cc2)cc1` came in with a logKi of 2.04.

Take `NS(=O)(=O)c1ccc(/N=C/c2cccc([N+](=O)[O-])c2)cc1`: the logKi worked out at 2.25.

Take `CC(=O)Nc1ccc(/C=N/Cc2ccc(S(N)(=O)=O)cc2)cc1`: the logKi worked out at 2.04.

Regarding `CS(=O)(=O)c1ccc(CC/N=C/c2ccccc2Cl)cc1`, the logKi stood at 2.32.

`COc1ccc(/C=N/Cc2ccc(S(N)(=O)=O)cc2)cc1` had a logKi of 2.08.

Take `NS(=O)(=O)c1ccc(C/N=C/c2ccccc2Cl)cc1`: the logKi is 1.95.

As to `CC(=O)Nc1ccc(/C=N/CCc2ccc(S(C)(=O)=O)cc2)cc1`, the logKi came to 1.6.

In turn, `NS(=O)(=O)c1ccc(C/N=C/c2ccccc2[N+](=O)[O-])cc1` had a logKi of 2.48.

Compound `NS(=O)(=O)c1ccc(C/N=C/c2ccc([N+](=O)[O-])cc2)cc1` (stereo in doubt; 45) had a logKi of 1.3.

In turn, `COc1cc(/C=N/c2ccc(S(N)(=O)=O)cc2)ccc1C(C)=O` had a logKi of 2.

Take `NS(=O)(=O)c1ccc(C/N=C/c2ccc([N+](=O)[O-])cc2)cc1` (stereo in doubt; 60): the logKi worked out at 2.15.

Take `NS(=O)(=O)c1ccc(/N=C/C2=C(Cl)CCC=C2)cc1`: the logKi is 2.46.

The compound `NS(=O)(=O)c1ccc(/N=C/C=C/c2ccccc2)cc1` came in with a logKi of 1.7.

Regarding `COc1ccccc1/C=N/c1ccc(S(N)(=O)=O)cc1`, the logKi amounted to 2.23.

The compound `CS(=O)(=O)/N=C/C1=C(O)CCC=C1` returned a logKi of 1.6.

In turn, `NS(=O)(=O)c1ccc(/N=C/c2ccc([N+](=O)[O-])cc2)cc1` returned a logKi of 1.7.

Turning to `NS(=O)(=O)c1ccc(/N=C/c2ccc(Cl)cc2)cc1`, the logKi amounted to 2.45.
